≈ marks a conversion by molar mass, not a printed value. Like-named read-outs stand apart in the source and are kept apart here.
What was measured:
[1] = system: cellular uptake of 1 in HeLa Kyoto cells; test: cells; format: cell-based; settings: HeLa; for IC50: read-out: IC50, inhibition of cellular uptake of 1; for minimal effective concentration: read-out: MIC, inhibition of cellular uptake of 1; for MIC (concentration that causes ∼15% reduction of reporter uptake), against reporter 1: pre-incubation time not given (Fig. 2: 1 h pre-incubation, 30 min with reporter; some 15 min)
Description: (§1) With COCs 1 and 2 as cell-penetrating reporters, a fully automated, fluorescent microscopy image-based high-content high-throughput (HCHT)[19] inhibitor screening assay was developed. HeLa cells in multiwell plates are incubated with a reporter at constant and inhibitors at varying concentrations and incubation times. Hindered reporter uptake then causes decrease of fluorescence inside of cells (Fig. 3a). Automated data analysis[19] was established to extract average fluorescence intensity per cell and, at the same time, cell viability from propidium iodide negative nuclei count (Fig. 3 and S3–S6 ^†). Standard assay conditions consisted of pre-incubation of HeLa cells with inhibitors for different periods of time, followed by the removal of inhibitors and the addition of reporters, thus excluding possible interactions between the two in the extracellular environment. In alternative co-incubation conditions, inhibitors were not removed before the addition of reporters to allow for eventual interactions between the two.
(§2) 4. High-Content High-Throughput (HCHT) Inhibitor Screening
(§3) 4.1. General Procedure for HCHT Inhibitor Screening
(§4) 4.1.1. Pre-Incubation of Inhibitors
(§5) HeLa Kyoto cells were seeded at 1.2 ×10^4 cells/well in FluoroBrite DMEM + 10% FBS on μ-Plate 96-well Black ibiTreat sterile and kept at 37 °C with 5% CO2 overnight. Next day, serial dilutions of the inhibitors in PBS (10x final concentration), reporter 1 or 2 (100 μM in PBS) and a solution of Hoechst 33342 (100 μg/mL) and PI (10 μg/mL) in PBS were prepared freshly in a 96-well V-bottom plate. Then, cells were washed with PBS ([…]) and the media was exchanged to FluoroBrite DMEM (4 x 150 μL/well) using a plate washer (Biotek EL406®), keeping always a final volume of 135 μL/well. The inhibitor solutions from the V-bottom plate were added to the cells (15 μL/well, 10x final concentration in PBS) using an electronic multichannel pipettes to reach a final volume of 150 μL/well. Cells were incubated for the time of interest (for details of each inhibitors, see Section 4.3 and 4.4) at 37 °C with 5%
(§6) CO2. After this, cells were washed again using the plate washer and reporter solution 1 or 2 from the V-bottom plate was added (15 μL/well) using an electronic multichannel pipettes to reach a final volume of 150 μL/well and a final concentration of 10 μM, except for the control wells, where only PBS was added (15 μL/well). After 30 min of incubation at 37 °C with 5% CO2, the plate was washed again using the plate washer. Then, the solution of Hoechst 33342 and PI from V-bottom plate was added (15 μL/well) using an electronic multichannel pipettes to reach a final volume of 150 μL/well. After 15 min of incubation at 37 °C with 5% CO2, the plate was washed one last time and the cells were kept in clean FluoroBrite DMEM. During imaging, samples were kept at 37 °C with 5% CO2 in the microscope.
(§7) 4.1.2. Co-Incubation of Inhibitors and Reporters […]
(§8) serial dilutions of the inhibitors in PBS (10x final concentration), reporter 1 or 2 (110 μM in […]
(§9) freshly in a 96-well V-bottom plate. Then, cells were washed with the plate washer. The inhibitor solutions from the V-bottom plate were added to the cells (15 μL/well, 10x final concentration in PBS) using an electronic multichannel pipettes to reach a final volume of 150 μL/well. Cells were incubated for the time of interest (for details of each inhibitors, see Section 4.3 and 4.4) at 37 °C with 5% CO2. Reporter solution 1 or 2 from V-bottom plate was then added (15 μL/well) using an electronic multichannel pipettes to reach a final volume of 165 μL/well and a final concentration of 10 μM 30 min before the next washing process, except for the control wells, where only PBS was added (15 μL/well). The plate was washed again using the plate washer. The solution of Hoechst 33342 and PI from V-bottom plate was added (15 μL/well) using an electronic multichannel pipettes to reach a final volume of 150 μL/well. After […]

[2] = system: cellular uptake of 2 in HeLa Kyoto cells; test: cells; format: cell-based; settings: for IC50: HeLa Kyoto
Description: as §1, §2, §3, §4, §5, §6, §7, §8, §9

[3] = HeLa Kyoto, 0.5 h, tpre 0.5 h, then tco 0.5 h co-incubation of inhibitor and 1 (10 µM)
[4] = HeLa Kyoto, 0.5 h, tpre 0.5 h with inhibitor, removal, tinc 0.5 h with 1 (10 µM)
[5] = HeLa Kyoto, 0.5 h, tpre 5.5 h with FBS, then tco 0.5 h co-incubation of inhibitor and 1 (10 µM)
[6] = HeLa Kyoto, 0.5 h, tpre 23.5 h with FBS, then tco 0.5 h co-incubation of inhibitor and 1 (10 µM)
[7] = HeLa Kyoto, 1 h, tpre 1 h with inhibitor, removal, tinc 0.5 h with 1 (10 µM)
[8] = HeLa Kyoto, 2 h, tpre 2 h with inhibitor, removal, tinc 0.5 h with 1 (10 µM)
[9] = HeLa Kyoto, 4 h, tpre 4 h with inhibitor, removal, tinc 0.5 h with 1 (10 µM)
[10] = HeLa Kyoto, tpre 1 h with inhibitor, removal, tinc 0.5 h with 1 (10 µM)
[11] = HeLa Kyoto, tpre 2 h with inhibitor, removal, tinc 0.5 h with 1 (10 µM)
[12] = HeLa Kyoto, tpre 4 h with inhibitor, removal, tinc 0.5 h with 1 (10 µM)
[13] = HeLa Kyoto, tpre 5.5 h with FBS, then tco 0.5 h co-incubation of inhibitor and 1 (10 µM)
[14] = HeLa Kyoto, tpre 23.5 h with FBS, then tco 0.5 h co-incubation of inhibitor and 1 (10 µM)
[15] = 0.5 h, HeLa, tpre 0.5 h, then tco 0.5 h co-incubation of inhibitor and 2 (10 µM), read-out: IC50, inhibition of cellular uptake of 2
[16] = HeLa, tpre 1 h with inhibitor, removal, tinc 0.5 h with 2 (10 µM), read-out: IC50, inhibition of cellular uptake of 2
[17] = HeLa, tpre 6 h with FBS, removal, tinc 0.5 h with 2 (10 µM), read-out: IC50, inhibition of cellular uptake of 2
[18] = HeLa, tpre 0.5 h, then tco 0.5 h co-incubation of inhibitor and 2 (10 µM)
[19] = HeLa, tpre 1 h with inhibitor, removal, tinc 0.5 h with 2 (10 µM)
[20] = HeLa, tpre 6 h with FBS, removal, tinc 0.5 h with 2 (10 µM)
[21] = HeLa, tpre 4 h with inhibitor, removal, tinc 0.5 h with 2 (10 µM), read-out: IC50, inhibition of cellular uptake of 2
[22] = HeLa, tpre 4 h with inhibitor, removal, tinc 0.5 h with 2 (10 µM)
[23] = tpre 1 h with inhibitor, removal, tinc 0.5 h with 1 (10 µM)

Compound	IC50 [1, 3] [µM]	minimal effective concentration [1, 3] [µM]	IC50 [1, 4] [µM]	minimal effective concentration [1, 4] [µM]	minimal effective concentration [1, 5] [µM]	minimal effective concentration [1, 6] [µM]	minimal effective concentration [1, 7] [µM]	minimal effective concentration [1, 8] [µM]	minimal effective concentration [1, 9] [µM]	IC50 [1, 10] [µM]	IC50 [1, 11] [µM]	IC50 [1, 12] [µM]	IC50 [1, 13] [µM]	IC50 [1, 14] [µM]	MIC (concentration that causes ∼15% reduction of reporter uptake), against reporter 1 [1]	IC50 [2, 17] [µM]	MIC, inhibition of cellular uptake of 2 [2, 18] [µM]	MIC, inhibition of cellular uptake of 2 [2, 20] [µM]	IC50 [2, 21] [µM]	MIC, inhibition of cellular uptake of 2 [2, 22] [µM]	also measured
CCN1C(=O)C2SSSSC1C(=O)N2CC(=O)O (centres unmarked) [compound 3]	2.7 ± 0.1	< 0.5	1.7 ± 0.2	< 0.1	< 0.5	30	< 0.1	< 0.1	< 0.1	1.3 ± 0.2	2.7 ± 0.6	8.2 ± 3.2	9.6 ± 1.2	> 50	< 0.1 µM	> 100	17	40			IC50 [2, 15]: > 20 µM; IC50 [2, 16]: > 20 µM; MIC, inhibition of cellular uptake of 2 [2, 19]: > 20 µM
CCN1C(=O)C2SSC1C(=O)N2CC(=O)O (centres unmarked) [compound 4]	2 ± 0.2	0.3	4.4 ± 1.3	< 0.1	0.3	8.1	0.1	0.1	0.1	1.1 ± 0.1	1.5 ± 0.1	2.1 ± 0.2	4.9 ± 0.5	66 ± 14		> 100	20	80	> 2	> 2	IC50 [2, 15]: > 20 µM; IC50 [2, 16]: > 20 µM; MIC, inhibition of cellular uptake of 2 [2, 19]: > 20 µM
O=C(O)CNC(=O)c1ccc2c(c1)SSSSS2 [compound 6]	5.1 ± 0.3	0.5	93 ± 28	0.3	5	12	0.3	0.4	0.4	35 ± 9	23 ± 6	24 ± 5	20 ± 1	> 20	≈ 0.3 μM		> 20	60		4	IC50 ([2]; 0.5 h, read-out: IC50, inhibition of cellular uptake of 2, HeLa, tpre 0.5 h, then tco 0.5 h co-incubation of inhibitor and 2 (10 µM)): > 20 µM; IC50 ([2]; read-out: IC50, inhibition of cellular uptake of 2, HeLa, tpre 4 h with inhibitor, removal, tinc 0.5 h with 2 (10 µM)): > 10 µM; IC50 ([2]; read-out: IC50, inhibition of cellular uptake of 2, HeLa, tpre 6 h with FBS, removal, tinc 0.5 h with 2 (10 µM)): > 100 µM; MIC against reporter 2 ([2]; HeLa, longer pre-incubation (Fig. 2: 4 h pre-incubation)): 4 µM (≈ 1.35 µg/mL)
O=C(CN1C(=O)C2SSC1C(=O)N2CCOc1ccccc1)NCC(=O)OC[C@H]1OC(O)[C@H](O)[C@@H](O)[C@@H]1O (some centres unmarked) [compound 7]			23 ± 4	0.5	6	54	0.5	0.2		27 ± 4	15 ± 1		42 ± 4	> 100	≈ 0.5 μM	> 200		180	> 100	70	IC50 ([2]; HeLa, tpre 23.5 h with FBS, then tco 0.5 h co-incubation of inhibitor and 2 (10 µM), read-out: IC50, inhibition of cellular uptake of 2): 41 ± 4 µM; MIC, inhibition of cellular uptake of 2 ([2]; HeLa, tpre 23.5 h with FBS, then tco 0.5 h co-incubation of inhibitor and 2 (10 µM)): 15 µM
O=C(O)CC[C@H](NC(=O)CN1C(=O)C2SSC1C(=O)N2CCOc1ccccc1)C(=O)O (some centres unmarked) [compound 9]			89 ± 9	15			7	7		86 ± 13	> 100					> 200		80	> 100	60	
[O-][S+]1CC(O)C(O)CS1 (centres unmarked) [compound 17]	> 500	100			250	150		300	250				> 1000	> 500							IC50 [1, 23]: > 500 µM; minimal effective concentration [1, 23]: 250 µM; IC50 ([1]; tpre 2 h with inhibitor, removal, tinc 0.5 h with 1 (10 µM)): > 500 µM; IC50 ([1]; tpre 4 h with inhibitor, removal, tinc 0.5 h with 1 (10 µM)): > 500 µM

Source: paper PMC8179002, “Inhibitors of thiol-mediated uptake” (Chemical Science, 2020)
